# Read-outs that look alike come from different tables or passages of the source.
# Experiments:
# Assay type in all cases: cell-based
# KAS-6/1 = experiment: IC50 of multiple myeloma drugs alone and with IC20 SNS01-T, KAS-6/1; conditions: for fold less IC50 with IC20 SNS01-T: KAS-6/1, with versus without IC20 SNS01-T
# RPMI-8226 = experiment: IC50 of multiple myeloma drugs alone and with IC20 SNS01-T, RPMI-8226; conditions: for IC50: Homo sapiens; for fold less IC50 with IC20 SNS01-T: RPMI-8226, with versus without IC20 SNS01-T
# U266 = experiment: IC50 of multiple myeloma drugs alone and with IC20 SNS01-T, U266; conditions: for IC50: Homo sapiens, U-266; for fold less IC50 with IC20 SNS01-T: U266, with versus without IC20 SNS01-T
# [1] = KAS-6/1, drug alone, read-out: IC50
# [2] = KAS-6/1, with IC20 SNS01-T, read-out: IC50 with IC20 SNS01-T
# [3] = RPMI-8226, drug alone, read-out: IC50
# [4] = RPMI-8226, with IC20 SNS01-T, read-out: IC50 with IC20 SNS01-T
# [5] = U266, drug alone, read-out: IC50
# [6] = U266, with IC20 SNS01-T, read-out: IC50 with IC20 SNS01-T
IC50 (KAS-6/1; [1]) [nM],IC50 (KAS-6/1; [2]) [nM],fold less IC50 with IC20 SNS01-T (KAS-6/1) [×],IC50 (RPMI-8226; [3]) [nM],IC50 (RPMI-8226; [4]) [nM],fold less IC50 with IC20 SNS01-T (RPMI-8226) [×],IC50 (U266; [5]) [nM],IC50 (U266; [6]) [nM],fold less IC50 with IC20 SNS01-T (U266) [×],SMILES
7.31,2.64,~2.8,2.12,1.51,~1.4,2.86,0.83,~3.4,"CC(C)C[C@H](NC(=O)[C@H](Cc1ccccc1)NC(=O)c1cnccn1)B(O)O [Bortezomib, bortezomib]"
69800,2370,~29,84900,3280,25.9,62000,1420,~43.7,"Nc1cccc2c1CN(C1CCC(=O)NC1=O)C2=O (stereo not drawn) [Lenalidomide, lenalidomide]"
